According to PMC2907371, “Antiviral biflavonoids from Radix Wikstroemiae (Liaogewanggen)” (Chinese Medicine, 2010):

Legend:
HIV-1 = test system: HIV-1; set-up: method as in PMID 10985087; details: cited from earlier work
RSV (long strain, VR-26) = experiment: CPE reduction assay, in vitro antiviral activity against RSV; assay type: cell-based, respiratory syncytial virus; details: for anti-RSV activity (in words): in vitro; for IC50: human respiratory syncytial virus, concentration that reduced 50% of CPE in respect to virus control, RSV in HEp-2 cells, mean (SD), n = 3; for SI: ratio of CC50 to IC50
Experimental: (§1) Human larynx epidermoid carcinoma cell line (HEp-2, CCL-23) and RSV (long strain, VR-26) were purchased from the American Type Culture Collection (ATCC, USA). The cells were grown in Eagle's minimum essential medium (EMEM) (Gibco, USA) supplemented with 10% fetal bovine serum (FBS) (Gibco, USA), 25 μg/ml gentamicin (Sigma, USA) and […] L-glutamine (Sigma, USA) (growth medium). Virus-infected cells were maintained in EMEM with 1% FBS, 25 μg/ml gentamicin and […] L-glutamine (maintenance medium). All the cells were cultured at 37°C in a humidified atmosphere supplied with 5% CO2. Virus titers were determined by the 50% tissue culture infective dose (TCID50) method.
CPE reduction assay was adopted for screening the in vitro antiviral activity as described in the previous study. Briefly, 0.1 ml of 100 TCID50 virus suspension and serial two-fold dilutions of the tested samples were added simultaneously to confluent cell monolayers in a 96-well plate. Virus suspension and maintenance medium without samples were added as the virus control and cell control, respectively. The plates were incubated at 37°C in a humidified CO2 atmosphere for 3-5 days. The virus-induced CPE was scored against the virus control under a light microscope. Ribavirin (Sigma, USA) was used as positive control in this experiment.

[1] = Cytotoxicity assay (MTT method); assay type: cell-based; details: human, concentration with half maximal inhibition on growth and survival of HEp-2 cells, mean (SD), n = 3
Experimental: as §1
Cell viability was tested by the 3-(4,5-dimethylthiazol-2-yl)-2,5-diphenyl tetrazolium bromide (MTT) method as described in previous study. Briefly, 100 μl of two-fold diluted samples were added to a 96-well plate containing confluent cell monolayer in triplicates while the dilution medium without the sample was the control. After 72 hours of incubation, 12 μl of the MTT solution (5 mg/ml in phosphate buffered saline) was added to each well. The trays were further incubated for four hours for the formation of blue formazan. After the supernatant was removed, the blue formazan was solubilized in 100 μl DMSO and the optical density (OD) was measured at 570 nm with a microplate reader.

In the case of `COc1cc(C[C@@H]2COC(=O)[C@@]2(O)Cc2ccc(O)c(OC)c2)ccc1O` [(+)-nortrachelogenin], the “activity against HIV-1 in vitro (in words)” value (HIV-1) is given as “moderately active”.

With `O=C1c2c(O)cc(O)cc2O[C@H](c2ccc(O)cc2)[C@H]1[C@@H]1C(=O)c2c(O)cc(O)cc2O[C@@H]1c1ccc(O)cc1` [Compound I, neochamaejasmin B] the “anti-RSV activity (in words)” value (RSV (long strain, VR-26); CPE reduction assay) was “did not show anti-RSV effect”, the “anti-RSV activity (in words)” value (RSV (long strain, VR-26); CPE reduction assay, listed as neochamaejasmin B) was “did not” and the “IC50 (symbol)” value (RSV (long strain, VR-26); CPE reduction assay, highest concentration tested = maximal non-cytotoxic concentration) was “-”. It also gave a CC50 at 72 h [1] of 29.9 µM.

For `O=C1C=C2O[C@@H](c3ccc(O)cc3)[C@]3(O)C(=O)c4c(O)cc(O)cc4O[C@]23C2=C1C[C@H](O)[C@@H](c1ccc(O)cc1)O2` [Compound II, genkwanol B], the “anti-RSV activity (in words)” value (RSV (long strain, VR-26); CPE reduction assay) was “potent anti-RSV activity”, the IC50 (RSV (long strain, VR-26)) was 9.6 µM and the SI (RSV (long strain, VR-26)) was 11.0. It also gave a CC50 at 72 h [1] of 106 µM.

With `O=C1C=C2O[C@H](c3ccc(O)cc3)[C@@]3(O)C(=O)c4c(O)cc(O)cc4O[C@@]23C2=C1C[C@H](O)[C@@H](c1ccc(O)cc1)O2` [Compound III, genkwanol C] the “anti-RSV activity (in words)” value (RSV (long strain, VR-26); CPE reduction assay) was “potent anti-RSV activity”, the IC50 (RSV (long strain, VR-26)) was 6.6 µM and the SI (RSV (long strain, VR-26)) was 21.9. The CC50 at 72 h [1] was 145 µM.

In the case of `O=C1C=C2O[C@H](c3ccc(O)cc3)[C@@]3(O)C(=O)c4c(O)cc(O)cc4O[C@@]23C2=C1C[C@@H](O)[C@@H](c1ccc(O)cc1)O2` [Compound IV, stelleranol], the “anti-RSV activity (in words)” value (RSV (long strain, VR-26); CPE reduction assay) is reported as “potent anti-RSV activity”, the IC50 (RSV (long strain, VR-26)) is reported as 10.2 µM and the SI (RSV (long strain, VR-26)) is reported as 15.8. It also gave a CC50 at 72 h [1] of 162 µM.

`NC(=O)c1ncn([C@@H]2O[C@H](CO)[C@@H](O)[C@H]2O)n1` [Ribavirin, reference compound] showed an IC50 (RSV (long strain, VR-26)) of 11.9 µM, an SI (RSV (long strain, VR-26)) of 21.6 and a CC50 at 72 h [1] of 256 µM.

In the case of `O=C(c1c(O)cc(O)cc1O)c1c(-c2ccc(O)cc2)oc2cc(O)c3c(c12)O[C@H](c1ccc(O)cc1)[C@@H](O)C3` [daphnodorin B], the “activity against HIV-1 in vitro (in words)” value (HIV-1) is listed as “moderately active”.

In the case of `O=C1c2c(O)cc(O)cc2O[C@@]12c1c(cc(O)c3c1O[C@H](c1ccc(O)cc1)[C@@H](O)C3)O[C@@H]2c1ccc(O)cc1` [genkwanol A], the “activity against HIV-1 in vitro (in words)” value (HIV-1) is listed as “moderately active”.

For `O=c1c(-c2c(O)cc(O)c3c2O[C@H](c2ccc(O)cc2)[C@@H](O)C3)c(-c2ccc(O)cc2)oc2cc(O)cc(O)c12` [wikstrol B], the “activity against HIV-1 in vitro (in words)” value (HIV-1) is given as “moderately active”.
